Values of other authors in patent US20100048397A1, “GABA/Pesticidal Combinations” (priority 2008, published 2010).

Tests used:
[1] = tested on: greenhouse-grown tomato plants; settings: in vivo
[2] = tested on: greenhouse-grown cucumber plants; settings: in vivo
[3] = tested on: leek seed; settings: seed treatment, compared with seed treated with fipronil

For `O=[N+]([O-])NC1=NCCN1Cc1ccc(Cl)nc1` [imidacloprid, (E)-1-(6-chloro-3-pyridylmethyl)-N-nitroimidazolidin-2-ylideneamine], the “phytotoxicity at lowest rate” value [1] is given as “caused phytotoxicity symptoms”, the “phytotoxicity at lowest rate” value [2] is given as “caused phytotoxicity symptoms” and the “phytotoxicity, germination rate” value [3] is given as “delayed germination rates”.
